Assay results from patent publication US20240309007A1, “CRYSTALLINE FORMS OF 3-{4-[(2R)-2-AMINOPROPOXY]PHENYL}-N-[(1R)- 1-(3-FLUOROPHENYL) ETHYL]IMIDAZO[1,2-B]PYRIDAZIN-6-AMINE AND SALTS THEREOF” (ANHEART THERAPEUTICS (HANGZHOU) CO., LTD., priority 2021, published 2024).
“Also recorded” adds a separate entry of the source.

How the values were obtained:
Assay type in all cases: physicochemical
[1] = Dynamic Vapor Sorption (DVS), hygroscopicity
Experimental: Dynamic Vapor Sorption (DVS) was performed by using Intrinsic DVS (Surface Measurement Systems, UK). A sample was weighed in an amount of 20-30 mg and was placed in a sample chamber. The measurement was performed at DMDT mode when the temperature of the sample chamber was maintained at 25±1° C.

[2] = Stability under stress conditions (XRPD and HPLC purity)
Experimental: A predetermined amount of the crystalline form A of Compound 1 adipate was stored under the following conditions: (1) open to air under 25° C./60% RH for one or two weeks, (2) open to air under 40° C./75% RH for one or two weeks, (3) open to air under 80° C. for one day, and (4) exposed to light for 10 days. Crystalline form and chemical impurity were checked by XRPD and HPLC, respectively.
In Table 5, Sample No. 1 was a crystalline form A starting material before any test; Samples Nos. 2 and 3 were subject to condition (1) described above; Samples Nos. 4 and 5 were subject to condition (2) described above; Samples No. 6 was subject to condition (3) described above; and Samples Nos. 7 and 8 were subject to condition (4) described above where Sample No. 7 was not covered and Sample No. 8 was completely covered by a tin foil as a comparison.

[3] = Long-term stability test, 25° C./60% RH, three years; settings: for Appearance / Assay (anhydrous and solvent free basis) / Individual unspecified impurity (Maximum) / Total impurities / Water content / deF-6051: 25° C. ± 2° C./60 ± 5% RH
Experimental: The long-term stability test of the crystalline form A of Compound 1 adipate was performed by storing a sample at 25°±2° C./[…] for three years.

[4] = Accelerated stability test, 40° C./75% RH, six months; settings: for Appearance / Assay Adipic acid (potentiometric titration) / Assay DS-6051a (HPLC)/ (anhydrous and solvent free basis) / Related substances (UPLC) Total impurities / Water content (KF) / Related substances (UPLC) Unspecified individual impurity / Crystal form (XRPD): 40° C. ± 2° C./75 ± 5% RH; for Crystal form (XRPD): consistent with reference standard
Experimental: The accelerated stability test of the crystalline form A of Compound 1 adipate was performed by storing a sample at 40° C.±2° C./[…] for six months.

[5] = Exposure to light (1.2 million lux h), 10 days, completely covered by a tin foil (comparison)
[6] = Exposure to light (1.2 million lux h), 10 days, not covered
[7] = open to air, 25° C./60% RH, 1 week
[8] = open to air, 25° C./60% RH, 2 weeks
[9] = open to air, 40° C./75% RH, 1 week
[10] = open to air, 40° C./75% RH, 2 weeks
[11] = starting material before any test

crystalline form (XRPD) of the sample before and after the DVS test [1]: did not change
weight increase (DVS) ([1]; at 80% RH, 25±1° C.): 0.235%
crystalline form on storage (physical stability) [2]: remains unchanged
physical and chemical stability (in words) [2]: superior physical and chemical stability
purity on storage (chemical stability) [2]: essentially unchanged
Purity (%) [2, 5]: 99.81%
XRPD [2, 5]: Form A
Purity (%) [2, 6]: 99.79%
XRPD [2, 6]: Form A
Purity (%) [2, 7]: 99.81%
XRPD [2, 7]: Form A
Purity (%) [2, 8]: 99.79%
XRPD [2, 8]: Form A
Purity (%) [2, 9]: 99.84%
XRPD [2, 9]: Form A
Purity (%) [2, 10]: 99.81%
XRPD [2, 10]: Form A
Purity (%) ([2]; open to air, 80° C., 1 day): 99.68%
XRPD ([2]; open to air, 80° C., 1 day): Form A
Purity (%) [2, 11]: 99.86%
XRPD [2, 11]: Form A
stability (in words) [3]: superior stability
Appearance ([3]; 0 M): White
Assay (anhydrous and solvent free basis) ([3]; 0 M): 100.0%
Individual unspecified impurity (Maximum) ([3]; 0 M): 0.09%
Total impurities ([3]; 0 M): 0.61%
Water content ([3]; 0 M): 0.07%
deF-6051 ([3]; 0 M): 0.46%
Appearance ([3]; 3 M): White
Assay (anhydrous and solvent free basis) ([3]; 3 M): 100.0%
Individual unspecified impurity (Maximum) ([3]; 3 M): 0.09%
Total impurities ([3]; 3 M): 0.61%
Water content ([3]; 3 M): 0.08%
deF-6051 ([3]; 3 M): 0.46%
Appearance ([3]; 6 M): White
Assay (anhydrous and solvent free basis) ([3]; 6 M): 100.0%
Individual unspecified impurity (Maximum) ([3]; 6 M): 0.09%
Total impurities ([3]; 6 M): 0.54%
Water content ([3]; 6 M): 0.11%
deF-6051 ([3]; 6 M): 0.45%
Appearance ([3]; 9 M): White
Assay (anhydrous and solvent free basis) ([3]; 9 M): 99.9%
Individual unspecified impurity (Maximum) ([3]; 9 M): 0.09%
Total impurities ([3]; 9 M): 0.60%
Water content ([3]; 9 M): 0.08%
deF-6051 ([3]; 9 M): 0.46%
Appearance ([3]; 12 M): White
Assay (anhydrous and solvent free basis) ([3]; 12 M): 100.2%
Individual unspecified impurity (Maximum) ([3]; 12 M): 0.09%
Total impurities ([3]; 12 M): 0.55%
Water content ([3]; 12 M): 0.09%
deF-6051 ([3]; 12 M): 0.46%
Appearance ([3]; 18 M): White
Assay (anhydrous and solvent free basis) ([3]; 18 M): 100.2%
Individual unspecified impurity (Maximum) ([3]; 18 M): 0.09%
Total impurities ([3]; 18 M): 0.55%
Water content ([3]; 18 M): 0.06%
deF-6051 ([3]; 18 M): 0.46%
Appearance ([3]; 24 M): White
Assay (anhydrous and solvent free basis) ([3]; 24 M): 99.7%
Individual unspecified impurity (Maximum) ([3]; 24 M): 0.09%
Total impurities ([3]; 24 M): 0.54%
Water content ([3]; 24 M): 0.07%
deF-6051 ([3]; 24 M): 0.45%
Appearance ([3]; 36 M): White
Assay (anhydrous and solvent free basis) ([3]; 36 M): 100.0%
Individual unspecified impurity (Maximum) ([3]; 36 M): 0.09%
Total impurities ([3]; 36 M): 0.53%
Water content ([3]; 36 M): 0.06%
deF-6051 ([3]; 36 M): 0.44%
time stable at room temperature in a sealed container ([3]; room temperature, sealed container): at least 36 months
stability (in words) [4]: superior stability
Appearance ([4]; 0 M): White
Assay Adipic acid (potentiometric titration) ([4]; 0 M): 26.2%
Assay DS-6051a (HPLC)/ (anhydrous and solvent free basis) ([4]; 0 M): 99.5%
Related substances (UPLC) Total impurities ([4]; 0 M): 0.05%
Water content (KF) ([4]; 0 M): 0.2%
Related substances (UPLC) Unspecified individual impurity ([4]; 0 M, RRT1.48): 0.05%
Crystal form (XRPD) ([4]; 0 M): conform
Appearance ([4]; 1 M): White
Assay Adipic acid (potentiometric titration) ([4]; 1 M): 26.5%
Assay DS-6051a (HPLC)/ (anhydrous and solvent free basis) ([4]; 1 M): 100.1%
Related substances (UPLC) Total impurities ([4]; 1 M): <0.05%
Related substances (UPLC) Unspecified individual impurity ([4]; 1 M): <0.05%
Water content (KF) ([4]; 1 M): 0.1%
Crystal form (XRPD) ([4]; 1 M): conform
Appearance ([4]; 2 M): White
Assay Adipic acid (potentiometric titration) ([4]; 2 M): 26.4%
Assay DS-6051a (HPLC)/ (anhydrous and solvent free basis) ([4]; 2 M): 99.6%
Related substances (UPLC) Total impurities ([4]; 2 M): <0.05%
Related substances (UPLC) Unspecified individual impurity ([4]; 2 M): <0.05%
Water content (KF) ([4]; 2 M): 0.1%
Crystal form (XRPD) ([4]; 2 M): conform
Appearance ([4]; 3 M): White
Assay Adipic acid (potentiometric titration) ([4]; 3 M): 26.2%
Assay DS-6051a (HPLC)/ (anhydrous and solvent free basis) ([4]; 3 M): 99.5%
Related substances (UPLC) Total impurities ([4]; 3 M): <0.05%
Related substances (UPLC) Unspecified individual impurity ([4]; 3 M): <0.05%
Water content (KF) ([4]; 3 M): 0.1%
Crystal form (XRPD) ([4]; 3 M): conform
Appearance ([4]; 6 M): White
Assay Adipic acid (potentiometric titration) ([4]; 6 M): 26.2%
Assay DS-6051a (HPLC)/ (anhydrous and solvent free basis) ([4]; 6 M): 99.0%
Related substances (UPLC) Total impurities ([4]; 6 M): <0.05%
Related substances (UPLC) Unspecified individual impurity ([4]; 6 M): <0.05%
Water content (KF) ([4]; 6 M): 0.1%
Crystal form (XRPD) ([4]; 6 M): conform
SMILES: C[C@@H](N)COc1ccc(-c2cnc3ccc(N[C@H](C)c4cccc(F)c4)nn23)cc1 [crystalline form A of Compound 1 adipate, 3-{4-[(2R)-2-aminopropoxy]phenyl}-N-[(1R)-1-(3-fluorophenyl)ethyl]imidazo[1,2-b]pyridazin-6-amine]
hygroscopicity (in words) ([1]; from DVS weight increase at 80% RH): low hygroscopicity; also recorded: very low or nearly no hygroscopicity
